According to ChEMBL document CHEMBL4425102, “Structure-Based Design of Tetrahydroisoquinoline-7-carboxamides as Selective Discoidin Domain Receptor 1 (DDR1) Inhibitors” (J Med Chem, 2016):
Active and inactive are the calls of the source. The calls are words filed in the database; no cut-off is given here.

What was measured:
[1] = AUC (0 to infinity) in Sprague-Dawley rat at 20 mg/kg, po measured after 0.03 to 24 hrs by HPLC/MS analysis; assay type: ADME, organism-based; set-up: dose 20 mg/kg, route oral, time infinity; conditions: in vivo
[2] = Tmax in Sprague-Dawley rat at 20 mg/kg, po by HPLC/MS analysis; assay type: ADME, organism-based; conditions: in vivo
[3] = Cmax in ICR mouse at 4 mg/kg, po measured after 15 mins to 24 hrs by HPLC/MS analysis; assay type: ADME, organism-based; set-up: dose 4 mg/kg, route oral; conditions: in vivo
[4] = Oral bioavailability in Sprague-Dawley rat at 20 mg/kg measured after 0.03 to 24 hrs by HPLC/MS analysis; assay type: ADME, organism-based; conditions: in vivo
Mus musculus [5] = assay: Protection against bleomycin-induced lung fibrosis in C57BL/6 mouse assessed as decrease in fibronectin level in lung at 10 to 50 mg/kg administered via oral gavage bid 14 days post bleomycin treatment measured on day 28 by immunoblot analysis; assay type: functional, organism-based
Mus musculus [6] = assay: Protection against bleomycin-induced lung fibrosis in C57BL/6 mouse assessed as increase in alveolar spaces administered via oral gavage bid 14 days post bleomycin treatment measured on day 28 by Massons trichrome staining; assay type: functional, organism-based
[7] = AUC (0 to infinity) in ICR mouse at 4 mg/kg, po measured after 15 mins to 24 hrs by HPLC/MS analysis; assay type: ADME, organism-based; set-up: dose 4 mg/kg, route oral, time infinity; conditions: in vivo
[8] = Tmax in ICR mouse at 4 mg/kg, po by HPLC/MS analysis; assay type: ADME, organism-based; conditions: in vivo
[9] = Cmax in ICR mouse at 1 mg/kg, iv measured after 5 mins to 24 hrs by HPLC/MS analysis; assay type: ADME, organism-based; set-up: dose 1 mg/kg, route intravenous; conditions: in vivo
[10] = biological target: T1, Muscle, skeletal receptor tyrosine-protein kinase (Homo sapiens, UniProt O15146); assay: Binding affinity to wild type human partial length MUSK (553 to 869 residues) expressed in bacterial expression system preincubated for 1 hr measured after 30 mins by qPCR method
T1 sequence (O15146 whole entry): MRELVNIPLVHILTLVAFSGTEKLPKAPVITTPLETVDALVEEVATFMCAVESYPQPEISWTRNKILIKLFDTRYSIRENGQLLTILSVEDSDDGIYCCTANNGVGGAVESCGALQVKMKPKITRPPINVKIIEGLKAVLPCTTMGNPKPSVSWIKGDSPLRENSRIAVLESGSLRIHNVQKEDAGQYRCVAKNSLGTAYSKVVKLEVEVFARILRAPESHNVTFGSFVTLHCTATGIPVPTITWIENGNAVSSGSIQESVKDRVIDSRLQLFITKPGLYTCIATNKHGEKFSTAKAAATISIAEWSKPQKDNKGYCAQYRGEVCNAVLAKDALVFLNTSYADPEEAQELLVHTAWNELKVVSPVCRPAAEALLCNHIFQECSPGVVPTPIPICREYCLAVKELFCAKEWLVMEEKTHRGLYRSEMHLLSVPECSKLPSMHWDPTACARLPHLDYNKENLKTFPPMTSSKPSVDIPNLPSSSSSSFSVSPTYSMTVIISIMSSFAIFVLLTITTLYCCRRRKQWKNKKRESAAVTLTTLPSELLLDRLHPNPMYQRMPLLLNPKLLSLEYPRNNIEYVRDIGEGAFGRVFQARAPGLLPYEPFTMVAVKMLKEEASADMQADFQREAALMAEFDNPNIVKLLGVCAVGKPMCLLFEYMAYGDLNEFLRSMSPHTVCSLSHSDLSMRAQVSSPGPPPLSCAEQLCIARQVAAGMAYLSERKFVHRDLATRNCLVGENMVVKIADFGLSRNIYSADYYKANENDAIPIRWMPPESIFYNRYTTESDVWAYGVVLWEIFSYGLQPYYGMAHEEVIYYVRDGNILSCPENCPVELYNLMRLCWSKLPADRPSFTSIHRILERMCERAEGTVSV

[11] = biological target: Tyrosine-protein kinase ABL1 (Homo sapiens, UniProt P00519); assay: Inhibition of human full length recombinant His-tagged ABL1 expressed in baculovirus infected Sf9 insect cells using tyrosine 2 peptide as substrate preincubated for 1 hr measured after 2 hrs in presence of ATP by FRET-based Z'-Lyte assay
Sequence of Tyrosine-protein kinase ABL1 (P00519 whole entry, the tested form may be a part): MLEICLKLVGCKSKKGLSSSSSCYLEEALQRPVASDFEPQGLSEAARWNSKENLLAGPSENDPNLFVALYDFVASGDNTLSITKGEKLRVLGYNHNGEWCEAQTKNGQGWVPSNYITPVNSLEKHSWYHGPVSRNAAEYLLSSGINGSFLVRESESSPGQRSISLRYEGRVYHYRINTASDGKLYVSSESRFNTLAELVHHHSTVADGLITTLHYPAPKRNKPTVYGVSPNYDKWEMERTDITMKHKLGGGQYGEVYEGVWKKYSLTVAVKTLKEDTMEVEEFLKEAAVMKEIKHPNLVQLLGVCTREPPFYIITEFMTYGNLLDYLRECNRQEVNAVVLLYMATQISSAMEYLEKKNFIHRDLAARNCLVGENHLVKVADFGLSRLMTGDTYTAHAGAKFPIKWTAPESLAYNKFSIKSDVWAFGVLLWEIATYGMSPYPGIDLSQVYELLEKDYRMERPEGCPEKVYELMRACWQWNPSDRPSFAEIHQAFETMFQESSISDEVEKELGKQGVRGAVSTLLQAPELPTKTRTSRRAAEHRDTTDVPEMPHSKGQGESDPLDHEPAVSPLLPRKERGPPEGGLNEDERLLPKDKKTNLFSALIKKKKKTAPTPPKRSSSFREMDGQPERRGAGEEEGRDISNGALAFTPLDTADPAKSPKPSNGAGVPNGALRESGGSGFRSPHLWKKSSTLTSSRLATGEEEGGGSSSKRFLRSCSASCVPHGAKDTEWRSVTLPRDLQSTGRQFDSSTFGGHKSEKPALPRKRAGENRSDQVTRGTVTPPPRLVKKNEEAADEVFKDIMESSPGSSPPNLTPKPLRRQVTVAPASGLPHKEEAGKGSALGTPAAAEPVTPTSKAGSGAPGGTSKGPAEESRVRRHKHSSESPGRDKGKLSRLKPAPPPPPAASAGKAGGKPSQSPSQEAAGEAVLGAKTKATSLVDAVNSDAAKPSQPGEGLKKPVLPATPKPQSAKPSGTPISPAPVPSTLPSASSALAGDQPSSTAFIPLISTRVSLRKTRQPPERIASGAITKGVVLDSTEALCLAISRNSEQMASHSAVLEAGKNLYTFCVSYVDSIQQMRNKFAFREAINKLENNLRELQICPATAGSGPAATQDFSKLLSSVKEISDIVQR

Ephrin type-A receptor 8 = biological target: T2, Ephrin type-A receptor 8 (Homo sapiens, UniProt P29322); assay: Binding affinity to wild type human partial length EPHA8 (608 to 920 residues) expressed in bacterial expression system preincubated for 1 hr measured after 30 mins by qPCR method
T2 sequence (P29322 whole entry): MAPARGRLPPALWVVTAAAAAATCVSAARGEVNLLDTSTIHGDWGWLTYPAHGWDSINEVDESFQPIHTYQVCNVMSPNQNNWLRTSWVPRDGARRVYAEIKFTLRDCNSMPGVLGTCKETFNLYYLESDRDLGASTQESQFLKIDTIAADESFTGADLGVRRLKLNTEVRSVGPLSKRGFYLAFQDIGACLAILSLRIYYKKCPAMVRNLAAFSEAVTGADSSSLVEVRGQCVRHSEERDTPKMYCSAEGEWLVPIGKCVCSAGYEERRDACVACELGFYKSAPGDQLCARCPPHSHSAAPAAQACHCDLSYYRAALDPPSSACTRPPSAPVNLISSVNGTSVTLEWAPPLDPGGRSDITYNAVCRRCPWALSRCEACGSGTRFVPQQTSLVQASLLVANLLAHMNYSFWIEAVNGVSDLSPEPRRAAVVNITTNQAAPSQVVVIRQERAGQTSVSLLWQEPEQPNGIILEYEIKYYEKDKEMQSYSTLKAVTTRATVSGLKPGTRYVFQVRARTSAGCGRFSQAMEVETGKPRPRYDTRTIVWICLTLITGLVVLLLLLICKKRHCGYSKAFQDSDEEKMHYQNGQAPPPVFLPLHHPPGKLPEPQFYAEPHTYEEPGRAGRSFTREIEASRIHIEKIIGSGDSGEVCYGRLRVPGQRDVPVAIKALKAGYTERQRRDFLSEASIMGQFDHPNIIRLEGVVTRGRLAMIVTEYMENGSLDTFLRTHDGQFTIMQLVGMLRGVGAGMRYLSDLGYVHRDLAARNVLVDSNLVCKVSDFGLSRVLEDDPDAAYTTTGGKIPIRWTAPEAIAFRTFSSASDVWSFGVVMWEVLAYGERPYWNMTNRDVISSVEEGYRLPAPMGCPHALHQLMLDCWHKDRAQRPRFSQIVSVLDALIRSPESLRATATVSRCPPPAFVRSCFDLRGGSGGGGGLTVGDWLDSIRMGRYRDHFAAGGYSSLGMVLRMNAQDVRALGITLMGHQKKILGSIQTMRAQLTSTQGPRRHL

Mus musculus [12] = assay: Protection against bleomycin-induced lung fibrosis in C57BL/6 mouse assessed as decrease in hydroxyproline level in lung administered via oral gavage bid 14 days post bleomycin treatment measured on day 28 […]; assay type: functional, organism-based
[13] = AUC (0 to infinity) in ICR mouse at 1 mg/kg, iv measured after 5 mins to 24 hrs by HPLC/MS analysis; assay type: ADME, organism-based; set-up: dose 1 mg/kg, time infinity, route intravenous; conditions: in vivo
[14] = Cmax in Sprague-Dawley rat at 20 mg/kg, po measured after 0.03 to 24 hrs by HPLC/MS analysis; assay type: ADME, organism-based; set-up: dose 20 mg/kg, route oral; conditions: in vivo
[15] = Half life in Sprague-Dawley rat at 4 mg/kg, iv by HPLC/MS analysis; assay type: ADME, organism-based; conditions: in vivo
[16] = Cmax in Sprague-Dawley rat at 4 mg/kg, iv measured after 0.03 to 24 hrs by HPLC/MS analysis; assay type: ADME, organism-based; set-up: dose 4 mg/kg, route intravenous; conditions: in vivo
[17] = AUC (0 to infinity) in Sprague-Dawley rat at 4 mg/kg, iv measured after 0.03 to 24 hrs by HPLC/MS analysis; assay type: ADME, organism-based; set-up: dose 4 mg/kg, time infinity, route intravenous; conditions: in vivo
Mus musculus [18] = assay: Protection against bleomycin-induced lung fibrosis in C57BL/6 mouse assessed as decrease in alpha-smooth muscle actin level in lung at 10 to 50 mg/kg administered via oral gavage bid 14 days post bleomycin treatment measured on day 28 by immunoblot analysis; assay type: functional, organism-based
[19] = Oral bioavailability in ICR mouse at 4 mg/kg measured after 15 mins to 24 hrs by HPLC/MS analysis; assay type: ADME, organism-based; conditions: in vivo
[20] = biological target: Epithelial discoidin domain-containing receptor 1 (Homo sapiens, UniProt Q08345); assay: biochemical
Sequence of Epithelial discoidin domain-containing receptor 1 (Q08345 whole entry, the tested form may be a part): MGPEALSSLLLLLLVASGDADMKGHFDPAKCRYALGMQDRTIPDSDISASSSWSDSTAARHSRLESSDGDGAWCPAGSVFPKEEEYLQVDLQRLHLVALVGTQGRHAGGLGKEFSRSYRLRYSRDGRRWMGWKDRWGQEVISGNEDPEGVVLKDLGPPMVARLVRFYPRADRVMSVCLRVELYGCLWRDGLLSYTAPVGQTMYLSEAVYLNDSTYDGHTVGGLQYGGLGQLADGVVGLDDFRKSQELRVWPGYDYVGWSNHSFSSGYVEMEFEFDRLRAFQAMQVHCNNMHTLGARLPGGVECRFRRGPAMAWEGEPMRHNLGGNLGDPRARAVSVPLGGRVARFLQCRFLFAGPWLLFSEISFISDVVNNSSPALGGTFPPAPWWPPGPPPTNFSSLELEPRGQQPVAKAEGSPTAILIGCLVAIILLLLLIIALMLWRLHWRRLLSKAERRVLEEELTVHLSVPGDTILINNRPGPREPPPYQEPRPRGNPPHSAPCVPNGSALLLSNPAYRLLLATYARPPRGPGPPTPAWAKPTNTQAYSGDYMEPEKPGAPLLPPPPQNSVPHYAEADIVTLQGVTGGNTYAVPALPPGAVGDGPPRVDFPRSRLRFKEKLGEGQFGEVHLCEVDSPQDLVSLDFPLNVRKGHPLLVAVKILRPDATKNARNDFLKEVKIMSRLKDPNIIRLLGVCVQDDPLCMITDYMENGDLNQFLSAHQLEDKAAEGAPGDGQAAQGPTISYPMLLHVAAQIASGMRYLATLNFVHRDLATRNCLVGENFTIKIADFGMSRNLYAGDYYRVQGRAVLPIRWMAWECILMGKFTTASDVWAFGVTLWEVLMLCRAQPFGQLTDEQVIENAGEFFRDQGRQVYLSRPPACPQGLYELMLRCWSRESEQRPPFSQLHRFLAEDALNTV

Which AUC(0-inf) [1] does the source give for Cc1cn(-c2cc(NC(=O)c3ccc4c(c3)CN(c3cncnc3)C[C@@H]4C)cc(C(F)(F)F)c2)cn1 here?
The AUC(0-inf) was 788 ng·h/mL.

And the Tmax [2]?
Its Tmax is 1 h.

What about the Cmax [3] of the same molecule?
Its Cmax is 2190 ng/mL.

What about the bioavailability [4] of the same molecule?
The bioavailability was 66.8%.

What about the Activity (Mus musculus [5]) of the same molecule?
The Activity was “Active”.

And the Activity (Mus musculus [6])?
The Activity was “Dose-dependent effect”.

And the AUC(0-inf) [7]?
The AUC(0-inf) was 2550 ng·h/mL.

And the Tmax [8]?
The Tmax was 0.5 h.

And the Cmax [9]?
The Cmax was 2250 ng/mL.

What about the Kd [10] of the same molecule?
The Kd was 0.53 µM.

What about the IC50 [11] of the same molecule?
Its IC50 is > 10 µM.

And the Kd (Ephrin type-A receptor 8)?
Its Kd is 0.55 µM.

What about the Activity (Mus musculus [12]) of the same molecule?
Its Activity is “Dose-dependent effect”.

And the AUC(0-inf) [13]?
The AUC(0-inf) was 1210 ng·h/mL.

What about the Cmax [14] of the same molecule?
The Cmax was 342 ng/mL.

What about the half-life [15] of the same molecule?
The half-life was 1.5 h.

And the Cmax [16]?
Its Cmax is 473 ng/mL.

And the AUC(0-inf) [17]?
The AUC(0-inf) was 236 ng·h/mL.

What about the Activity (Mus musculus [18]) of the same molecule?
Its Activity is “Active”.

And the bioavailability [19]?
Its bioavailability is 41.6%.

With CN1CCN(Cc2cc(NC(=O)c3ccc4c(c3)CN(c3ccccc3)CC4)cc(C(F)(F)F)c2)CC1 as the molecule, how does the IC50 [11] read?
Its IC50 is > 10 µM.

What about the IC50 [20] of the same molecule?
Its IC50 is > 3 µM.

What does the source list for CC(C)[C@H]1CN(c2cncnc2)Cc2cc(C(=O)Nc3cc(CN4CCN(C)CC4)cc(C(F)(F)F)c3)ccc21?
IC50 [11]: > 10 µM; IC50 [20]: > 1 µM

Which IC50 [11] does the source give for Cc1cn(-c2cc(NC(=O)c3ccc4c(c3)CN(c3cncnc3)C[C@H]4C)cc(C(F)(F)F)c2)cn1 here?
The IC50 was > 10 µM.

Which results are given for CC(C)[C@@H]1CN(c2cncnc2)Cc2cc(C(=O)Nc3cc(CN4CCN(C)CC4)cc(C(F)(F)F)c3)ccc21?
IC50 [11]: > 10 µM; IC50 [20]: > 3 µM
